# Where two headings read alike, the source gives them in different places.
# Tests used:
# Type in all cases: cell-based, human
# MOLM-14 cells [1] = assay: WST-1 cell proliferation assay, MOLM-14; conditions: Homo sapiens
# Procedure: Cell lines were seeded into 96-well plates the afternoon prior to treatment. Approximately 18 hours later, bis and mono-aziridine dimeric naphthoquinone compounds were semi-serially diluted in dimethyl sulfoxide (DMSO) and then growth medium, and added to cells. Plates were incubated for 72 hours prior to addition of WST-1 (Promega®). Plates were read after 4 additional hours of incubation at 37° C. using a Bio-Tek Synergy® HT plate reader (Bio-Tek®). Data were analyzed and graphed using GraphPad Prism® Software (Graph Pad®).
# Primary AML cells from patients and cell lines were seeded into 96-well plates the afternoon prior to treatment. Eighteen hours later, amino-dimeric naphthoquinone Compounds 106, 101, and 114 were semi-serially diluted in dimethyl sulfoxide (DMSO) and then growth medium, and added to the cells. In order to quantitate proliferation of metabolically active cells, plates were incubated for 72 hours for cell lines and 48 hours for primary AML cells prior to addition of water-soluble tetrazolium (WST-1) (Clontech®). Plates were read after four additional hours of incubation at 37° C. using a Bio-Tek Synergy® HT plate reader (Bio-Tele®). Data were analyzed and graphed using GraphPad Prism® Software (GraphPad®). IC50 was defined as the concentration that decreases viable cell numbers by 50%. IC50 values were calculated as mean±standard deviation from at least two independent experiments. If availability of primary blasts was limited, the IC50 was obtained from a single experiment.
# To investigate antiproliferative activity of amino-dimeric naphthoquinones against AML cells, an MTT-like cell proliferation assay was performed in the AML cell lines using WST-1 (water soluble tetrazolium salts; Promega®). MOLM-14 and AML-D cells, as well as normal hematopoietic bone marrow cells from a healthy donor, were exposed to a range of concentrations of Compound 101. Human leukemia cells were cultured in the presence of the compound for 72 hours (48 hours for primary cells) and WST-1 reagent was then added. The cells then were monitored for cell growth or the number of cells proliferating and the IC50 calculated. The IC50 is the concentration at which 50% of the cells are not proliferating compared to control cells treated with vehicle. See FIG. 2A, FIG. 2B, and FIG. 2C for representative graphs of these IC50 determinations.
# MOLM-14 cells [2] = assay: Cell survival assay (trypan blue exclusion), MOLM-14; conditions: 72 hours; at 0.1, 1, 10 and 100 μM
# Procedure: MOLM-.14 and THP-1 cells were seeded in 96-well plates and treated with DMSO, mono- and bis-aziridinyl dimeric naphthoquinone compounds, or dimethylamine dimeric naphthoquinone Compound 114 as previously described. Cells were incubated for 72 hours, and then counted using trypan blue exclusion on the Countess® automated cell counter (Life Technologies®). Cell counts were performed in duplicates, and the averages were graphed using GraphPad Prism® software (GraphPad®).
# Cell survival was determined using trypan blue exclusion, in which cells are plated and the following day treated similarly to the proliferation assay. The bis-aziridinyl dimeric naphthoquinone Compound 101 was effective in decreasing cell number at increasing concentrations of compound in MOLM-14 and THP1 cells.
# MOLM-14 cells [3] = assay: Gamma-H2Ax immunofluorescence assay, MOLM-14; conditions: 24 hours; 200 nM, 1.0 and 2.0 μM
# Procedure: MOLM-14 cells were seeded in the afternoon and the following morning treated with DMSO, or aziridinyl-dimeric naphthoquinone Compound 101 at 1×, 5×; or 10× IC50 concentrations. Cells were harvested at 24 and 48 hours. Briefly, cells were washed twice with PBS, counted, and resuspended into PBS/2% FBS. Approximately 150,000 cells were pelleted on Superfrost® microslides (Thermo Fisher Scientific®) using a cytospin machine (Thermo Fisher Scientific®) for 10 minutes at 800 RPM. Slides were air-dried for 5 minutes, then fixed in 4% paraformaldehyde for 15 minutes, washed with PBS 3 times, each time for 5 minutes and permeabilized with permeabilization buffer (50 mM NaCl, 3 mM MgCl2, 10 mM HEPES, 200 mM sucrose, and 0.5% Triton-X-100) for 10 minutes. After overnight blocking in PBS/10% FBS, slides were washed 3 times, each time for 5 minutes with wash buffer (PBS, 1% BSA, and 0.1% Triton-X-100), stained with 1:100 anti-phosphohistone H2Ax antibody (Millipore®), washed with wash buffer again 3 times, each time for 5 minutes, and stained with 1:200 goat anti-mouse IgG, Dylight 594® (Thermo Scientific®), washed 3 times, each time for 5 minutes with wash buffer, and mounted with Vectashield® mounting medium with 4′,6-diamidino-2-phenylindole (DAPI, Vector Labs®). Slides sat overnight and were sealed the following day with clear nail polish. […]
compound,measurement,setting,value
"O=C1C(C2=C(N3CC3)C(=O)c3ccccc3C2=O)=C(N2CC2)C(=O)c2ccccc21 [Compound 101, 3,3′-di(aziridin-1-yl)-[2,2′-binaphthalene]-1,1 4,4′-tetrone]",IC50,"MOLM-14 cells [1]; MOLM-14, 72 h, 72 hours, WST-1, read-out: IC50 against MOLM-14 cells",150 to 200 nM
same,IC50,"MOLM-14 cells [1]; MOLM-14, Example 5 text, read-out: IC50 MOLM-14",180 ± 60 nM
same,IC50,"MOLM-14 cells [1]; MOLM-14, Table 5, read-out: IC50 MOLM-14 (n)",250 ± 200 nM
same,"viable cells, MOLM-14",MOLM-14 cells [2],statistically significant (p<0.05) reduction in viable cells
same,"γ-H2Ax phosphorylation (double-stranded DNA breaks), MOLM-14",MOLM-14 cells [3],substantial γ-H2Ax phosphorylation
